Reference: patent publication US8617872B2, “Compositions for culturing spirochetes” (priority 2000, dated 2013)

Tests used:
Assay type in all cases: cell-based
Leptospira [1] = assay: Antibiotic susceptibility test (MICROSCAN or disc diffusion) of patient samples positive for Leptospira; details: total isolates 276
Source text: (§1) This example describes the preparation of a pellet used for antimicrobial susceptibility testing of a culture sample. The procedure begins with a culture (e.g., prepared in the manner described in Example 2), where serum from a patient is inoculated in GSI-1 media and allowed to grow. In order to form pellet, an aliquot of this culture sample is placed in a microcentrifuge tube along with 10% SDS solution, and centrifuged at 14,000 g to disrupt the spirochetes and maximize the number of available eptiopic sites. The disrupted spirochetes were then cultured in an alternative growth medium made up of one part GSI-1 medium, one part 6.5% lactalbumin hydrolysate, one part 2% brain heart infusion, one part 10% pluronic fluid, and one part of the isolated (disrupted) spirochetes. This inoculated alternative growth medium was then allowed to incubate in the closed micro centrifuge tube until a distinctive pellet was observed (typically 7-14 days).
(§2) Following the observation of pellet formation, the tube was vortexed and incubated at 35° C. until a MacFarlane standard of between 8 to 12% turbidity was achieved. MICROSCAN antibiotic susceptibility microtiter plates were then inoculated with (e.g., 110 μl of) inoculum and allowed to incubate at 35° C. for 16-20 hours. The microtiter plates were then scanned for growth and respective sensitivity reaction (both the control well and the growth well). Table 2 below lists the various antimicrobials tested with this sample and whether growth of the organism was inhibited (susceptible) or whether the growth of the organism was not inhibited (resistant).
(§3) This Example describes the results for susceptibility tests that were performed on a large number of patient samples positive for either Borrelia or Leptospira. […] The results presented in Table 3 reveal the varied response of different types of spirochetes to different antibiotics.

Y. entero gp. = assay: Antibiotic susceptibility test (MICROSCAN or disc diffusion), control organism Y. entero gp.; details: total isolates 1
Pseudomonas = assay: Antibiotic susceptibility test (MICROSCAN or disc diffusion), control organism Pseudomonas; details: total isolates 1
Tatumella = assay: Antibiotic susceptibility test (MICROSCAN or disc diffusion), control organism Tatumella; details: total isolates 2
Source text: as §1, §2, §3

E. coli = assay: Antibiotic susceptibility test (MICROSCAN or disc diffusion), control organism E. coli; details: total isolates 1
A. lwoffii = assay: Antibiotic susceptibility test (MICROSCAN or disc diffusion), control organism A. lwoffii; details: total isolates 1
Borrelia = assay: Antibiotic susceptibility test (MICROSCAN or disc diffusion) of patient samples positive for Borrelia; details: total isolates 519
Source text: as §1, §2, §3

Leptospira [2] = assay: Susceptibility testing of Leptospira isolated from a patient with symptoms of multiple sclerosis; details: for Antibiotic Susceptibility Results, SERUM: Leptospira culture from serum of multiple sclerosis patient; for Antibiotic Susceptibility Results, URINE: Leptospira culture from urine of multiple sclerosis patient
Experimental: This example describes the preparation of a pellet used for antimicrobial susceptibility testing of a culture sample. […] In order to form pellet, an aliquot of this culture sample is placed in a microcentrifuge tube along with 10% SDS solution, and centrifuged at 14,000 g to disrupt the spirochetes and maximize the number of available eptiopic sites. […] This inoculated alternative growth medium was then allowed to incubate in the closed micro centrifuge tube until a distinctive pellet was observed (typically 7-14 days).
MICROSCAN antibiotic susceptibility microtiter plates were then inoculated with (e.g., 110 μl of) inoculum and allowed to incubate at 35° C. for 16-20 hours. The microtiter plates were then scanned for growth and respective sensitivity reaction (both the control well and the growth well).

Leptospira [3] = assay: Susceptibility testing of Leptospira isolated from a patient with symptoms of rheumatoid arthritis; details: for Antibiotic Susceptibility Results, SERUM: Leptospira culture from serum of rheumatoid arthritis patient; for Antibiotic Susceptibility Results, URINE: Leptospira culture from urine of rheumatoid arthritis patient
Source text: as §1
Following the observation of pellet formation, the tube was vortexed and incubated at 35° C. until a MacFarlane standard of between 8 to 12% turbidity was achieved. MICROSCAN antibiotic susceptibility microtiter plates were then inoculated with (e.g., 110 μl of) inoculum and allowed to incubate at 35° C. for 16-20 hours. The microtiter plates were then scanned for growth and respective sensitivity reaction (both the control well and the growth well).
This Example describes the diagnosis and treatment of a human patient with symptoms of rheumatoid arthritis. In particular, serum and urine samples from this patient were initially cultured on GSI-1 (e.g., as described in Example 2), and screened for the presence of spirochetes (e.g., as described in Example 3). […] These cultures were then used to produce pellets for antimicrobial susceptibility testing (e.g., as described in Example 6). The antimicrobial susceptibility tests were then carried out on each sample (e.g., as described in Example 7) with the antimicrobials listed below in Table 5.

Treponema isolate = assay: Antimicrobial susceptibility test (MICROSCAN plates) of a patient's Treponema isolate; details: Treponema infected patient's isolate; MICROSCAN plates, 35° C., 16-20 hours
Experimental: For susceptibility testing, the organisms harvested could be assayed using any suitable susceptibility assay (See, Example 7). In some embodiments of the present invention, MICROSCAN antibiotic susceptibility plates were inoculated and incubated. Following incubations, plates were scanned for growth and respective sensitivity reaction. […] For the results to be considered reliable, the no growth of organisms was accepted in the negative control well, while the positive control well had to have sufficient growth to be read. In some embodiments of the present invention, to confirm the presence or absence of growing spirochetes in the growth well, aliquots from the growth well were reinoculated with fresh growth media and after an incubation time (e.g., 7-10 days) the presence of the organisms was confirmed (e.g., by phase contrast microscopy or direct fluorescent antibody staining).
as §1
This example describes an antimicrobial susceptibility test performed for a human patient. The patient had previously been testing using GSI-1 medium (e.g., as described in Example 2) for the presence of any spirochetes. […] This culture sample was then transferred to a microcentrifuge tube, and a pellet for antimicrobial susceptibility testing was prepared as described in Example 6.
as §2

Row | SMILES | Antibiotic Susceptibility Test Results, Leptospira (Leptospira [1]) [%] | Antibiotic Susceptibility Test Results, Y. entero gp. (Y. entero gp.) [%] | Antibiotic Susceptibility Test Results, Pseudomonas (Pseudomonas) [%] | Antibiotic Susceptibility Test Results, Tatumella (Tatumella) [%] | Antibiotic Susceptibility Test Results, E. coli (E. coli) [%] | Antibiotic Susceptibility Test Results, A. lwoffii (A. lwoffii) [%] | Antibiotic Susceptibility Test Results, Borrelia (Borrelia) [%] | Antibiotic Susceptibility Results, SERUM (Leptospira [2]) | Antibiotic Susceptibility Results, URINE (Leptospira [2]) | Antibiotic Susceptibility Results, SERUM (Leptospira [3]) | Antibiotic Susceptibility Results, URINE (Leptospira [3]) | RESULT (antibiotic susceptibility) (Treponema isolate)
1 | C[C@@H](O)[C@H]1C(=O)N2C(C(=O)O)=C(SCCN=CN)C[C@H]12 [Imipenem] | 77 | 100 | 100 | 100 | 100 | 100 | 84 | Resistant | Resistant | – | – | –
2 | NCC[C@H](O)C(=O)N[C@@H]1C[C@H](N)[C@@H](O[C@H]2O[C@H](CN)[C@@H](O)[C@H](O)[C@H]2O)[C@H](O)[C@H]1O[C@H]1O[C@H](CO)[C@@H](O)[C@H](N)[C@H]1O [Amikacin] | 85 | 100 | 100 | 100 | 100 | 100 | 84 | Resistant | Resistant | Resistant | Resistant | –
3 | CCN1CCN(C(=O)N[C@@H](C(=O)N[C@@H]2C(=O)N3[C@@H]2SC(C)(C)[C@@H]3C(=O)O)c2ccccc2)C(=O)C1=O [Piperacillin] | 55 | 100 | 100 | 100 | 100 | 100 | 60 | Resistant | Resistant | Resistant | Resistant | Susceptible
4 | C[C@H]1COc2c(N3CCN(C)CC3)c(F)cc3c(=O)c(C(=O)O)cn1c23 [Levofloxacin] | 83 | 100 | 100 | 100 | 100 | 100 | 86 | Susceptible | Susceptible | Susceptible | Susceptible | –
5 | O=C(O)c1cn(C2CC2)c2cc(N3CCNCC3)c(F)cc2c1=O [Ciprofloxacin] | 78 | 100 | 100 | 100 | 100 | 100 | 84 | Susceptible | Susceptible | Susceptible | Susceptible | Resistant
6 | CO/N=C(\C(=O)N[C@@H]1C(=O)N2C(C(=O)O)=C(COC(C)=O)CS[C@H]12)c1csc(N)n1 [Cefotaxime] | 64 | 100 | 100 | 0 | 100 | 100 | 60 | Resistant | Resistant | Resistant | Resistant | –
7 | CO/N=C(\C(=O)N[C@@H]1C(=O)N2C(C(=O)[O-])=C(C[N+]3(C)CCCC3)CS[C@H]12)c1csc(N)n1 [Cefepime] | 54 | 100 | 100 | 0 | 100 | 100 | 49 | – | – | – | – | –
8 | CC(C)(O/N=C(\C(=O)N[C@@H]1C(=O)N2C(C(=O)[O-])=C(C[n+]3ccccc3)CS[C@H]12)c1csc(N)n1)C(=O)O [Ceftazidime] | 41 | 100 | 100 | 0 | 100 | 100 | 36 | Resistant | Resistant | Resistant | Resistant | –
